Source: patent US20260344673A1, “A SOLID FORM FOR PREPARATION OF AN AQUEOUS DISPERSION, AQUEOUS DISPERSION, STABLE CONCENTRATE, COMBINED AQUEOUS DISPERSION, AND USES THEREOF” (priority 2022, published 2026)

Legend:
[1] = system: Alternaria infectoria/alternata; assay: Kirby-Bauer disk diffusion test, Alternaria infectoria/alternata; details: for % mycelium growth relative to the control / mycelium growth: V8 medium; for mycelium growth: control 8.6 cm; for EFFICACY W (Abbot): control W=0, no growth W=100
Procedure: (§1) The performance of the embodiments of the present inventions and their mixtures enriched with millbase (MFA) was analysed against the appropriate reference substance, i.e., a commercial product containing the analogue active substance with the same concentration. The prepared solutions were applied on the paper antibiograms. Then the soaked antibiograms were placed on the Petri Dishes (dish diameter 90 mm) with the growth medium for fungal pathogens V8. Composition of V8: agar, calcium carbonate and multi-vegetable juice. 3 fragments of mycelium of the tested pathogen (5×5 mm) were transplanted onto the prepared medium. As a result, the zones where the fungal growth was inhibited have been measured and compared respectively with the control sample and the analogue active substance sample.
(§2) Assessment was carried out by determining the infested area of the Petri dish in %. These percentages have been converted into efficacy (W) according to Abbot's formula as follows: W=(1−α/β)×100 • where: • α—corresponds to the mycelium/bacterial growth of each tested sample [%], • β—corresponds to the mycelium/bacterial growth in control sample [%].
(§3) In order to estimate if the combined action effect with the commercial fungicide, the W parameter of the mixture was compared with W parameter for particular commercial fungicide solo. Where W=0 the efficacy of the control sample (whole Petri dish covered with mycelium), and W=100 is when no mycelium growth observed.

Venturia inaegualis = assay: Kirby-Bauer disk diffusion test, Venturia inaequalis; details: Venturia inaegualis; for % mycelium growth relative to the control / mycelium growth: V8 medium; for mycelium growth: control 2.9 cm; for EFFICACY W (Abbot): control W=0, no growth W=100
Procedure: (§4) The microbiological tests were carried out by applying Kirby-Bauer Disk Diffusion Susceptibility Test Protocol for antimicrobial activity. It is based on the formation of a concentration gradient in the growth medium during the diffusion of the active substance from the antibiogram disc (Kirby-Bauer method).
as §1, §2, §3

Phytophthora cactorum = assay: Kirby-Bauer disk diffusion test, Phytophthora cactorum; parameters: % mycelium growth relative to the control: concentration or dose not given beside the values; details: for % mycelium growth relative to the control / mycelium growth: V8 medium; for mycelium growth: control 5.4 cm; for EFFICACY W (Abbot): control W=0, no growth W=100
Procedure: as §1, §2, §3

Septoria nodorum (1291) = assay: Kirby-Bauer disk diffusion test, Septoria nodorum (1291); details: for % mycelium growth relative to the control / mycelium growth: V8 medium; for mycelium growth: control 5.4 cm; for EFFICACY W (Abbot): control W=0, no growth W=100
Procedure: as §1, §2, §3

Verticillium longisporum = assay: Kirby-Bauer disk diffusion test, Verticillium longisporum; details: for % mycelium growth relative to the control / mycelium growth: V8 medium; for mycelium growth: control 3.9 cm; for EFFICACY W (Abbot): control W=0, no growth W=100
Procedure: as §1, §2, §3

Fusarium equiseti = assay: Kirby-Bauer disk diffusion test, Fusarium equiseti; details: for % mycelium growth relative to the control / mycelium growth: V8 medium; for mycelium growth: control 8.6 cm; for EFFICACY W (Abbot): control W=0, no growth W=100
Procedure: as §1, §2, §3

Fusarium graminearum = details: for % mycelium growth relative to the control / mycelium growth: V8 medium; for mycelium growth: control 8.6 cm; for EFFICACY W (Abbot): control W=0, no growth W=100
Fusarium oxysporum = assay: Kirby-Bauer disk diffusion test, Fusarium oxysporum; details: Fusarium oxysporum; for % mycelium growth relative to the control / mycelium growth: V8 medium; for mycelium growth: control 8.6 cm; for EFFICACY W (Abbot): control W=0, no growth W=100
Procedure: as §4, §1, §2, §3

Phytophthora megasperma = assay: Kirby-Bauer disk diffusion test, Phytophthora megasperma; details: Phytophthora megasperma; for % mycelium growth relative to the control / mycelium growth: V8 medium; for mycelium growth: control 5.4 cm (8.6 cm in Table 25); for EFFICACY W (Abbot): control W=0, no growth W=100
Procedure: as §4, §1, §2, §3

Monilinia fructigena = assay: Kirby-Bauer disk diffusion test, Monilinia fructigena; details: for % mycelium growth relative to the control / mycelium growth: V8 medium; for mycelium growth: control 5.4 cm; for EFFICACY W (Abbot): control W=0, no growth W=100
Procedure: as §1, §2, §3

[2] = system: Colletotrichum gloeosporioides; assay: Kirby-Bauer disk diffusion test, Colletotrichum gloeosporioides; details: Colletotrichum gloeosporioides
Procedure: as §4, §1, §2, §3

Sclerotinia sclerotiorum [3] = assay: Kirby-Bauer disk diffusion test, Sclerotinia sclerotiorum; details: for % mycelium growth relative to the control / mycelium growth: V8 medium; for mycelium growth: control 8.6 cm; for EFFICACY W (Abbot): control W=0, no growth W=100
Procedure: as §1, §2, §3

Botrytis cinerea = assay: Kirby-Bauer disk diffusion test, Botrytis cinerea
Procedure: as §1, §2, §3

Rhizoctonia solani = assay: Kirby-Bauer disk diffusion test, Rhizoctonia solani; details: for % mycelium growth relative to the control / mycelium growth: V8 medium; for mycelium growth: control 8.6 cm; for EFFICACY W (Abbot): control W=0, no growth W=100
Procedure: as §1, §2, §3

Septoria tritici = assay: Kirby-Bauer disk diffusion test, Septoria tritici; details: for % mycelium growth relative to the control / mycelium growth: V8 medium; for mycelium growth: control 1.9 cm; for EFFICACY W (Abbot): control W=0, no growth W=100
Procedure: as §1, §2, §3

winter wheat = assay: Field trial winter wheat, plant biomass and yield parameters; type: in vivo; details: field conditions; for Bulk density: control 0.67; for The Thousand Grain Weight (TGW): control 41.90; for Yield: control 76.50; for Biomass: control 157.50
Procedure: (§5) Field trials were conducted in Poland according to approved EPPO guidelines: PP 1/135(4), PP 1/152(4), PP 1/181(4) (general), PP 1/1(4) (sugar beet), PP 1/28 (3), PP 1/26(4) (winter wheat), PP 1/78(4) (oilseed), PP1/263 (1), PP1/16 (3) (strawberry), PP 1/2 (5), PP 1/263 (1) (potato). The spray volumes were in line with farmers' practice, varying between 200-300 l/ha. The applications were processed as per the EPPO guideline specific for each crop.

soya = assay: Field trial soya, plant biomass and yield parameters; type: in vivo; details: field conditions; for Bulk density: control 0.728; for Yield: control 37.41; for Biomass: control 190.0; for The Thousand Grain Weight (TGW): control 205.3
Procedure: as §5

Peronospora manshurica = assay: Field trial soya, efficacy against Peronospora manshurica; type: in vivo; details: field conditions, tank-mix, control (no treatment) 5.66
Procedure: (§6) The rates of application (use) of the composition of the present invention (MFA) vary according to type of use, type of crop, the specific active ingredient in the combination, but is such that the active ingredient in the combination is an effective amount to provide the desired action (such as disease control). The application rate of the composition for a given set of conditions can readily be determined by trials.
as §5

Phoma lingam = assay: Field trial oilseed rape, efficacy against Phoma lingam; type: in vivo; details: field conditions, tank-mix, control (no treatment) 4.18
Procedure: as §6, §5

Sclerotinia sclerotiorum [4] = assay: Field trial oilseed rape, efficacy against Sclerotinia sclerotiorum; type: in vivo; details: field conditions, tank-mix, control (no treatment) 6.28
Procedure: as §6, §5

Zymoseptoria tritici = assay: Field trial winter wheat, efficacy against Zymoseptoria tritici; type: in vivo; details: field conditions, tank-mix, control (no treatment) 4.68
Procedure: as §6, §5

oilseed rape = assay: Field trial oilseed rape, plant biomass and yield quality/quantity parameters; type: in vivo; details: field conditions; for The Thousand Grain Weight (TGW): Tables 31-33, control 5.64; for Bulk density: control 0.65; for Yield: control 25.49; for Biomass: control 90.00
Procedure: as §5

Colletotrichum spp. = assay: Field trial soya, efficacy against Colletotrichum spp.; type: in vivo; details: field conditions, tank-mix, control (no treatment) 4.21
Trichoderma harzianum = assay: Kirby-Bauer disk diffusion test, Trichoderma harzianum
Procedure: as §1, §2, §3

Erwinia sp. = assay: Kirby-Bauer disk diffusion test, bacterial pathogens (inhibition zones, halo effect); details: Nutrient Agar, tank-mixes

## N#Cc1c[nH]cc1-c1cccc2c1OC(F)(F)O2 [Fludioxonil (250)]
[1]
  % mycelium growth relative to the control: 0%
  mycelium growth: 0 cm
  EFFICACY W (Abbot): 100
Venturia inaegualis
  % mycelium growth relative to the control: 38%
  mycelium growth: 1.1 cm
  EFFICACY W (Abbot): 62
Phytophthora cactorum
  % mycelium growth relative to the control: 100%
  mycelium growth: 5.4 cm
  EFFICACY W (Abbot): 0
Septoria nodorum (1291)
  % mycelium growth relative to the control: 72%
  mycelium growth: 3.9 cm
  EFFICACY W (Abbot): 28
Verticillium longisporum
  % mycelium growth relative to the control: 87%
  mycelium growth: 3.4 cm
  EFFICACY W (Abbot): 13
Fusarium equiseti
  % mycelium growth relative to the control: 81%
  mycelium growth: 7 cm
  EFFICACY W (Abbot): 19
Fusarium graminearum
  % mycelium growth relative to the control: 73%
  mycelium growth: 6.3 cm
  EFFICACY W (Abbot): 27
Fusarium oxysporum
  % mycelium growth relative to the control: 86%
  mycelium growth: 7.4 cm
  EFFICACY W (Abbot): 14
Phytophthora megasperma
  % mycelium growth relative to the control: 100%
  mycelium growth: 5.4 cm
  EFFICACY W (Abbot): 0
Monilinia fructigena
  % mycelium growth relative to the control: 61%
  mycelium growth: 3.3 cm
  EFFICACY W (Abbot): 39
[2]; V8 medium
  % mycelium growth relative to the control: 81%
[2]; V8 medium, control 5.4 cm
  mycelium growth: 4.4 cm
[2]; control W=0, no growth W=100
  EFFICACY W (Abbot): 19
Sclerotinia sclerotiorum [3]
  % mycelium growth relative to the control: 0%
  mycelium growth: 0 cm
  EFFICACY W (Abbot): 100
Botrytis cinerea; V8 medium
  % mycelium growth relative to the control: 0%
Botrytis cinerea; V8 medium, control 8.6 cm
  mycelium growth: 0 cm
Botrytis cinerea; control W=0, no growth W=100
  EFFICACY W (Abbot): 100
Rhizoctonia solani
  % mycelium growth relative to the control: 55%
  mycelium growth: 4.7 cm
  EFFICACY W (Abbot): 45
Septoria tritici
  % mycelium growth relative to the control: 42%
  mycelium growth: 0.8 cm
  EFFICACY W (Abbot): 58

## O=C(NCCc1ncc(C(F)(F)F)cc1Cl)c1ccccc1C(F)(F)F [Fluopyram (500)]
[1]
  % mycelium growth relative to the control: 55%
  mycelium growth: 4.7 cm
  EFFICACY W (Abbot): 45
Venturia inaegualis
  % mycelium growth relative to the control: 0%
  mycelium growth: 0 cm
  EFFICACY W (Abbot): 100
Phytophthora cactorum
  % mycelium growth relative to the control: 72%
  mycelium growth: 3.9 cm
  EFFICACY W (Abbot): 28
Septoria nodorum (1291)
  % mycelium growth relative to the control: 61%
  mycelium growth: 3.3 cm
  EFFICACY W (Abbot): 39
Verticillium longisporum
  % mycelium growth relative to the control: 95%
  mycelium growth: 3.7 cm
  EFFICACY W (Abbot): 5
Fusarium equiseti
  % mycelium growth relative to the control: 79%
  mycelium growth: 6.8 cm
  EFFICACY W (Abbot): 21
Fusarium graminearum
  % mycelium growth relative to the control: 66%
  mycelium growth: 5.7 cm
  EFFICACY W (Abbot): 34
Fusarium oxysporum
  % mycelium growth relative to the control: 100%
  mycelium growth: 8.6 cm
  EFFICACY W (Abbot): 0
Phytophthora megasperma
  % mycelium growth relative to the control: 65%
  mycelium growth: 3.5 cm
  EFFICACY W (Abbot): 35
Monilinia fructigena
  % mycelium growth relative to the control: 30%
  mycelium growth: 1.6 cm
  EFFICACY W (Abbot): 70
Sclerotinia sclerotiorum [3]
  % mycelium growth relative to the control: 100%
  mycelium growth: 8.6 cm
  EFFICACY W (Abbot): 0
Rhizoctonia solani
  % mycelium growth relative to the control: 100%
  mycelium growth: 8.6 cm
  EFFICACY W (Abbot): 0
Septoria tritici
  % mycelium growth relative to the control: 0%
  mycelium growth: 0 cm
  EFFICACY W (Abbot): 100

## CC1(C)CCC(Cc2ccc(Cl)cc2)C1(O)Cn1cncn1 (stereo not drawn) [Metconazole (90)]
Winter wheat
  Bulk density: 0.67 kg/L
  The Thousand Grain Weight (TGW): 46.20 g
  Yield: 78.95 dt/ha
  Biomass: 172.50 dt/ha
soya
  Bulk density: 0.724 kg/L
  Yield: 32.86 dt/ha
  Biomass: 146.7 dt/ha
  The Thousand Grain Weight (TGW): 207.0 g
Peronospora manshurica
  Efficacy Peronospora manshurica: 3.13 scale 0-10
Phoma lingam
  Efficacy Phoma lingam: 2.99 scale 0-10
Sclerotinia sclerotiorum [4]
  Efficacy Sclerotinia sclerotiorum: 4.11 scale 0-10
Zymoseptoria tritici
  Efficacy Zymoseptoria tritici: 3.11 scale 0-10
Oilseed rape
  The Thousand Grain Weight (TGW): 6.13 g
  Bulk density: 0.67 kg/L
  Yield: 33.63 dt/ha
  Biomass: 152.50 dt/ha
Colletotrichum spp.
  Efficacy Colletotrichum spp.: 2.31 scale 0-10

## COc1cc(C)c(C(=O)c2c(OC)ccc(Br)c2C)c(OC)c1OC [Metrafenone (150)]
Trichoderma harzianum; V8 medium
  % mycelium growth relative to the control: 80%
Trichoderma harzianum; V8 medium, control 8.6 cm
  mycelium growth: 6.9 cm
Trichoderma harzianum; control W=0, no growth W=100
  EFFICACY W (Abbot): 20

## CCCN(CCOc1c(Cl)cc(Cl)cc1Cl)C(=O)n1ccnc1 [Prochloraz (450)]
Winter wheat
  Bulk density: 0.65 kg/L
  The Thousand Grain Weight (TGW): 46.90 g
  Yield: 71.51 dt/ha
  Biomass: 157.50 dt/ha
soya
  Bulk density: 0.743 kg/L
  Yield: 41.37 dt/ha
  Biomass: 176.7 dt/ha
  The Thousand Grain Weight (TGW): 211.5 g
Peronospora manshurica
  Efficacy Peronospora manshurica: 3.37 scale 0-10
Phoma lingam
  Efficacy Phoma lingam: 3.11 scale 0-10
Sclerotinia sclerotiorum [4]
  Efficacy Sclerotinia sclerotiorum: 4.17 scale 0-10
Zymoseptoria tritici
  Efficacy Zymoseptoria tritici: 3.37 scale 0-10
Oilseed rape
  The Thousand Grain Weight (TGW): 5.72 g
  Bulk density: 0.68 kg/L
  Yield: 30.06 dt/ha
  Biomass: 125.00 dt/ha
Colletotrichum spp.
  Efficacy Colletotrichum spp.: 2.79 scale 0-10
Erwinia sp.; control 0.00
  Efficacy %: 0.00%
Erwinia sp.; control 3.5 mm
  Erwinia sp. bacterial growth: 3.5 mm
